Laboratory results: PubChem BioAssay (NCI)
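The compound was tested at five concentrations on cells cultured in 96-well plates, with a 48-hour exposure period. TGI marks complete inhibition of growth.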

What was measured:
Assay in all cases: DTP human tumour cell line panel, 48 h
SNB-19 CNS = tested on: SNB-19 CNS
MALME-3M melanoma = tested on: MALME-3M melanoma
HCT-15 colon = tested on: HCT-15 colon
ACHN renal = tested on: ACHN renal
NCI-H460 lung = tested on: NCI-H460 lung
LOX IMVI melanoma = tested on: LOX IMVI melanoma
HCC-2998 colon = tested on: HCC-2998 colon
SK-MEL-28 melanoma = tested on: SK-MEL-28 melanoma
SK-MEL-2 melanoma = tested on: SK-MEL-2 melanoma
M14 melanoma = tested on: M14 melanoma
OVCAR-8 ovarian = tested on: OVCAR-8 ovarian
BT-549 breast = tested on: BT-549 breast
NCI/ADR-RES ovarian = tested on: NCI/ADR-RES ovarian
MDA-MB-435 = tested on: MDA-MB-435
SNB-75 CNS = tested on: SNB-75 CNS
MDA-N = tested on: MDA-N
RXF 393 renal = tested on: RXF 393 renal
MDA-MB-231 breast = tested on: MDA-MB-231 breast
OVCAR-4 ovarian = tested on: OVCAR-4 ovarian
786-0 renal = tested on: 786-0 renal
SN12C renal = tested on: SN12C renal
UO-31 renal = tested on: UO-31 renal
A549 NSCLC = tested on: A549 NSCLC
T-47D breast = tested on: T-47D breast
SF-539 CNS = tested on: SF-539 CNS
SF-295 CNS = tested on: SF-295 CNS
HS 578T breast = tested on: HS 578T breast
CAKI-1 renal = tested on: CAKI-1 renal
NCI-H226 lung = tested on: NCI-H226 lung
K-562 leukemia = tested on: K-562 leukemia
EKVX NSCLC = tested on: EKVX NSCLC
SK-OV-3 ovarian = tested on: SK-OV-3 ovarian
HCT-116 colon = tested on: HCT-116 colon
PC-3 prostate = tested on: PC-3 prostate
SF-268 CNS = tested on: SF-268 CNS
UACC-62 melanoma = tested on: UACC-62 melanoma
MCF7 breast = tested on: MCF7 breast
OVCAR-5 ovarian = tested on: OVCAR-5 ovarian
MOLT-4 leukemia = tested on: MOLT-4 leukemia
NCI-H522 lung = tested on: NCI-H522 lung
HT29 colon = tested on: HT29 colon
RPMI-8226 leukemia = tested on: RPMI-8226 leukemia
UACC-257 melanoma = tested on: UACC-257 melanoma
SW-620 colon = tested on: SW-620 colon
KM12 colon = tested on: KM12 colon
SK-MEL-5 melanoma = tested on: SK-MEL-5 melanoma
U251 CNS = tested on: U251 CNS
OVCAR-3 ovarian = tested on: OVCAR-3 ovarian
TK-10 renal = tested on: TK-10 renal
HOP-62 NSCLC = tested on: HOP-62 NSCLC
IGROV1 ovarian = tested on: IGROV1 ovarian
NCI-H23 lung = tested on: NCI-H23 lung
A498 renal = tested on: A498 renal
HL-60(TB) leukemia = tested on: HL-60(TB) leukemia
CCRF-CEM leukemia = tested on: CCRF-CEM leukemia
COLO 205 colon = tested on: COLO 205 colon
SR leukemia = tested on: SR leukemia
HOP-92 NSCLC = tested on: HOP-92 NSCLC
DU-145 prostate = tested on: DU-145 prostate

`Cc1cc(S(=O)(=O)O)c(NC(=O)c2oc3cc(O)ccc3c(=O)c2C)cc1Cl` was tested, and the TGI (SNB-19 CNS) was > 100 µM, the TGI (MALME-3M melanoma) was > 100 µM and the TGI (HCT-15 colon) was > 100 µM. The TGI (ACHN renal) was > 100 µM, the TGI (NCI-H460 lung) was > 100 µM and the TGI (LOX IMVI melanoma) was > 100 µM. The TGI (HCC-2998 colon) was > 100 µM, the TGI (SK-MEL-28 melanoma) was > 100 µM and the TGI (SK-MEL-2 melanoma) was > 100 µM. The TGI (M14 melanoma) was > 100 µM, the TGI (OVCAR-8 ovarian) was > 100 µM and the TGI (BT-549 breast) was > 100 µM. For the same compound, the TGI (NCI/ADR-RES ovarian) was > 100 µM, the TGI (MDA-MB-435) was > 100 µM and the TGI (SNB-75 CNS) was > 100 µM. For the same compound, the TGI (MDA-N) was > 100 µM, the TGI (RXF 393 renal) was > 100 µM and the TGI (MDA-MB-231 breast) was > 100 µM. For the same compound, the TGI (OVCAR-4 ovarian) was > 100 µM, the TGI (786-0 renal) was > 100 µM and the TGI (SN12C renal) was > 100 µM. The TGI (UO-31 renal) was > 100 µM, the TGI (A549 NSCLC) was > 100 µM and the TGI (T-47D breast) was > 100 µM. For the same compound, the TGI (SF-539 CNS) was > 100 µM, the TGI (SF-295 CNS) was > 100 µM and the TGI (HS 578T breast) was > 100 µM. The TGI (CAKI-1 renal) was > 100 µM, the TGI (NCI-H226 lung) was > 100 µM and the TGI (K-562 leukemia) was > 100 µM. For the same compound, the TGI (EKVX NSCLC) was > 100 µM, the TGI (SK-OV-3 ovarian) was > 100 µM and the TGI (HCT-116 colon) was > 100 µM. The TGI (PC-3 prostate) was > 100 µM, the TGI (SF-268 CNS) was > 100 µM and the TGI (UACC-62 melanoma) was > 100 µM. For the same compound, the TGI (MCF7 breast) was > 100 µM, the TGI (OVCAR-5 ovarian) was > 100 µM and the TGI (MOLT-4 leukemia) was > 100 µM. The TGI (NCI-H522 lung) was > 100 µM, the TGI (HT29 colon) was > 100 µM and the TGI (RPMI-8226 leukemia) was > 100 µM. For the same compound, the TGI (UACC-257 melanoma) was > 100 µM, the TGI (SW-620 colon) was > 100 µM and the TGI (KM12 colon) was > 100 µM. For the same compound, the TGI (SK-MEL-5 melanoma) was > 100 µM, the TGI (U251 CNS) was > 100 µM and the TGI (OVCAR-3 ovarian) was > 100 µM. The TGI (TK-10 renal) was > 100 µM, the TGI (HOP-62 NSCLC) was > 100 µM and the TGI (IGROV1 ovarian) was > 100 µM. For the same compound, the TGI (NCI-H23 lung) was > 100 µM.

`CC(C)C1CC(CO)(CNc2cc(Cl)nc(N)n2)C1` (configuration not stated) was tested, and the TGI (SNB-19 CNS) was > 100 µM, the TGI (MALME-3M melanoma) was > 100 µM and the TGI (HCT-15 colon) was > 100 µM. The TGI (ACHN renal) was > 100 µM, the TGI (NCI-H460 lung) was > 100 µM and the TGI (LOX IMVI melanoma) was > 100 µM. The TGI (HCC-2998 colon) was > 100 µM, the TGI (SK-MEL-28 melanoma) was > 100 µM and the TGI (SK-MEL-2 melanoma) was > 100 µM. The TGI (OVCAR-8 ovarian) was > 100 µM, the TGI (BT-549 breast) was > 100 µM and the TGI (NCI/ADR-RES ovarian) was > 100 µM. For the same compound, the TGI (MDA-MB-435) was > 100 µM, the TGI (MDA-N) was > 100 µM and the TGI (A498 renal) was 65.9 µM. For the same compound, the TGI (HL-60(TB) leukemia) was > 100 µM, the TGI (RXF 393 renal) was > 100 µM and the TGI (CCRF-CEM leukemia) was > 100 µM. The TGI (MDA-MB-231 breast) was > 100 µM, the TGI (OVCAR-4 ovarian) was > 100 µM and the TGI (786-0 renal) was > 100 µM. For the same compound, the TGI (SN12C renal) was > 100 µM, the TGI (UO-31 renal) was > 100 µM and the TGI (A549 NSCLC) was > 100 µM. For the same compound, the TGI (T-47D breast) was 87.9 µM, the TGI (SF-539 CNS) was > 100 µM and the TGI (SF-295 CNS) was > 100 µM. The TGI (HS 578T breast) was > 100 µM, the TGI (COLO 205 colon) was > 100 µM and the TGI (CAKI-1 renal) was > 100 µM. The TGI (SR leukemia) was > 100 µM, the TGI (NCI-H226 lung) was > 100 µM and the TGI (K-562 leukemia) was > 100 µM. The TGI (EKVX NSCLC) was > 100 µM, the TGI (SK-OV-3 ovarian) was > 100 µM and the TGI (HCT-116 colon) was > 100 µM. The TGI (PC-3 prostate) was > 100 µM, the TGI (SF-268 CNS) was > 100 µM and the TGI (UACC-62 melanoma) was > 100 µM. For the same compound, the TGI (MCF7 breast) was > 100 µM, the TGI (HOP-92 NSCLC) was > 100 µM and the TGI (OVCAR-5 ovarian) was > 100 µM. The TGI (NCI-H522 lung) was > 100 µM, the TGI (HT29 colon) was > 100 µM and the TGI (RPMI-8226 leukemia) was > 100 µM. The TGI (UACC-257 melanoma) was > 100 µM, the TGI (SW-620 colon) was > 100 µM and the TGI (KM12 colon) was > 100 µM. The TGI (SK-MEL-5 melanoma) was 40.8 µM, the TGI (U251 CNS) was > 100 µM and the TGI (OVCAR-3 ovarian) was > 100 µM. The TGI (TK-10 renal) was > 100 µM, the TGI (HOP-62 NSCLC) was > 100 µM and the TGI (DU-145 prostate) was > 100 µM. The TGI (IGROV1 ovarian) was > 100 µM.
